Test results: patent US20240400560A1, “BICYCLIC HETEROCYCLIC DERIVATIVE HAVING VIRAL GROWTH INHIBITORY ACTIVITY AND PHARMACEUTICAL COMPOSITION CONTAINING SAME” (Shionogi & Co., Ltd., priority 2021, published 2024)
Read-outs that look alike come from different tables or passages of the source.

What was measured:
[1] = test system: SARS-CoV-2; assay: Inhibitory activity of cytopathic effect (CPE) in HEK293T/ACE2-TMPRSS2 cells; assay type: cell-based
[2] = biological target: SARS-CoV-2 3CL protease (Severe acute respiratory syndrome coronavirus 2, UniProt P0DTD1); assay: Inhibitory activity test against SARS-CoV-2 3CL proteases; assay type: biochemical
[3] = Severe acute respiratory syndrome coronavirus 2, HEK-293T, 72 h, HEK293T/ACE2-TMPRSS2 cells, cultured 3 days, CellTiter-Glo 2.0 luminescence, read-out: EC50 (50% SARS-CoV-2 infected cell death inhibitory concentration)
[4] = read-out: IC50 (50% SARS-CoV-2 3CL protease inhibitory concentration)
[5] = Severe acute respiratory syndrome coronavirus 2, HEK-293T, 72 h, 50% SARS-CoV-2 infected cell death inhibitory concentration, HEK293T/ACE2-TMPRSS2 cells, CellTiter-Glo 2.0 after 3 days culture, read-out: EC50
[6] = Severe acute respiratory syndrome coronavirus 2, HEK-293T, 72 h, read-out: EC50 (50% SARS-CoV-2 infected cell death inhibitory concentration)
[7] = IC50 (50% SARS-CoV-2 3CL protease inhibitory concentration)

## Cn1cnc(Cn2c(=O)c3c4c(c(-c5cnccc5Cl)cc3n(Cc3cc(F)c(F)c(Cl)c3)c2=O)CCO4)n1 [Compound I-0563]
[1]; [3]
  EC50: < 100 nM
[2]; [4]
  IC50: < 100 nM

## Cn1cnc(Cn2c(=O)c3c4c(c(N5CCC(F)(F)CC5)cc3n(Cc3cc(F)c(F)c(F)c3)c2=O)CCO4)n1 [Compound I-0565]
[1]; [3]
  EC50: < 100 nM
[2]; [4]
  IC50: < 100 nM

## Cn1cnc(Cn2c(=O)c3c4nccnc4c(N4CC(F)(F)C(F)(F)C4)cc3n(Cc3cc(F)c(F)c(Cl)c3)c2=O)n1 [Compound I-0570]
[1]; [5]
  EC50: 24.7 nM
[2]; [4]
  IC50: 26 nM

## Cn1cnc(Cn2c(=O)c3c4nccnc4c(-c4c(F)cc(F)cc4F)cc3n(Cc3cc(F)c(F)c(Cl)c3)c2=O)n1 [Compound I-0571]
[1]; [3]
  EC50: < 100 nM
[2]; [4]
  IC50: < 100 nM

## CC(C)=Cc1cc2c(c(=O)n(Cc3ncn(C)n3)c(=O)n2Cc2cc(F)c(F)c(Cl)c2)c2nccnc12 [Compound I-0572]
[1]; [5]
  EC50: 28.3 nM
[2]; [4]
  IC50: 37 nM

## Cn1cnc(Cn2c(=O)c3c4nccnc4c(N4CC(F)C4)cc3n(Cc3cc(F)c(F)c(Cl)c3)c2=O)n1 [Compound I-0573]
[1]; [3]
  EC50: < 100 nM
[2]; [4]
  IC50: < 100 nM

## CC(C)Nc1cc2c(c(=O)n(Cc3ncn(C)n3)c(=O)n2Cc2cc(F)c(F)c(Cl)c2)c2nccnc12 [Compound I-0575]
[1]; [3]
  EC50: < 100 nM
[2]; [4]
  IC50: < 100 nM

## COc1nc2c(=O)n(Cc3ncn(C)n3)c(=O)n(Cc3cc(F)c(F)c(Cl)c3)c2cc1-c1ncc(F)cc1Cl [Compound I-0578]
[1]; [3]
  EC50: < 100 nM
[2]; [4]
  IC50: < 100 nM

## COc1nc2c(=O)n(Cc3ncn(C)n3)c(=O)n(Cc3cc(F)c(F)c(Cl)c3)c2cc1-c1nc(C)ccc1Cl [Compound I-0579]
[1]; [5]
  EC50: 12.1 nM
[2]; [4]
  IC50: 5.8 nM

## COc1nc2c(=O)n(Cc3ncn(C)n3)c(=O)n(Cc3cc(Cl)c(F)cc3C)c2cc1-c1ncc(F)cc1Cl [Compound I-0580]
[1]; [3]
  EC50: < 100 nM
[2]; [4]
  IC50: < 100 nM

## COc1nc2c(=O)n(Cc3ncn(C)n3)c(=O)n(Cc3cc(Cl)c(F)cc3C)c2cc1-c1nc(C)ccc1Cl [Compound I-0581]
[1]; [3]
  EC50: < 100 nM
[2]; [4]
  IC50: < 100 nM

## Cn1cnc(Cn2c(=O)c3c4nccnc4c(NC4CC5CC5C4)cc3n(Cc3cc(F)c(F)c(Cl)c3)c2=O)n1 (centres unmarked) [Compound I-0586]
[1]; [3]
  EC50: < 100 nM
[2]; [4]
  IC50: < 100 nM

## COc1cc(-c2cc(C#N)ccc2Cl)cc2c1c(=O)n(Cc1ncn(C)n1)c(=O)n2[C@H](C)c1cc(F)c(F)c(F)c1 [Compound I-0595]
[1]; [3]
  EC50: < 100 nM
[2]; [4]
  IC50: < 100 nM

## COc1nc(N2CC[C@@H](C#N)C2)cc2c1c(=O)n(Cc1ncn(C)n1)c(=O)n2Cc1cc(F)c(F)c(F)c1 [Compound I-0598]
[1]; [5]
  EC50: 13.6 nM
[2]; [4]
  IC50: 18 nM

## COc1nc(N2[C@H]3CC[C@@H]2[C@@H](O)C3)cc2c1c(=O)n(Cc1ncn(C)n1)c(=O)n2Cc1cc(F)c(F)c(F)c1 [Compound I-0602]
[1]; [6]
  EC50: < 100 nM
[2]; [7]
  IC50: < 100 nM

## COc1nc(N2C3CCC(O)C2CC3)cc2c1c(=O)n(Cc1ncn(C)n1)c(=O)n2Cc1cc(F)c(F)c(F)c1 (centres unmarked) [Compound I-0610]
[1]; [6]
  EC50: < 100 nM
[2]; [7]
  IC50: < 100 nM

## O=c1[nH]c(N2CCC[C@@H]2CO)cc2c1c(=O)n(-c1cnc3ccccn13)c(=O)n2Cc1cc(F)c(F)c(Cl)c1 [Compound I-0623]
[1]; [3]
  EC50: < 100 nM
[2]; [4]
  IC50: < 100 nM

## COc1nc(N2CC[C@@H](C(=O)O)C2)cc2c1c(=O)n(-c1cnc3cc(F)ccn13)c(=O)n2-c1ccc(F)c(Cl)c1 [Compound I-0625]
[1]; [3]
  EC50: 100 to 1000 nM
[2]; [4]
  IC50: < 100 nM

## CCNC(=O)[C@@H]1CCN(c2cc3c(c(OC)n2)c(=O)n(-c2cnc4cc(F)ccn24)c(=O)n3-c2ccc(F)c(Cl)c2)C1 [Compound I-0626]
[1]; [5]
  EC50: 55.2 nM
[2]; [4]
  IC50: 14 nM

## COc1nc(N2CC[C@@H](C(=O)N3CCOCC3)C2)cc2c1c(=O)n(-c1cnc3cc(F)ccn13)c(=O)n2-c1ccc(F)c(Cl)c1 [Compound I-0627]
[1]; [3]
  EC50: < 100 nM
[2]; [4]
  IC50: < 100 nM

## O=c1c2c(=O)n(-c3cnc4cc(F)ccn34)c(=O)n(-c3ccc(F)c(Cl)c3)c2cc2n1C[C@@H]1CCCN21 [Compound I-0628]
[1]; [5]
  EC50: 661 nM
[2]; [4]
  IC50: 26 nM

## Cn1cnc(Cn2c(=O)c3c4ncccc4c(-c4cc(C#N)ccc4Cl)cc3n(Cc3cc(F)c(F)c(F)c3)c2=O)n1 [Compound I-0632]
[1]; [5]
  EC50: 50.1 nM
[2]; [4]
  IC50: 3.1 nM

## Cc1c(-c2cc(C#N)ccc2Cl)cc2c(c1F)c(=O)n(Cc1ncn(C)n1)c(=O)n2Cc1cc(F)c(F)c(Cl)c1 [Compound I-0637]
[1]; [3]
  EC50: < 100 nM
[2]; [4]
  IC50: < 100 nM

## Cn1cnc(Cn2c(=O)c3c(F)c(C4CC4)c(-c4cc(C#N)ccc4Cl)cc3n(Cc3cc(F)c(F)c(Cl)c3)c2=O)n1 [Compound I-0638]
[1]; [3]
  EC50: < 100 nM
[2]; [4]
  IC50: < 100 nM

## Cn1cnc(Cn2c(=O)c3c(cc(-c4cc(C#N)ccc4Cl)n4nnnc34)n(Cc3cc(F)c(F)c(F)c3)c2=O)n1 [Compound I-0639]
[1]; [3]
  EC50: 100 to 1000 nM
[2]; [4]
  IC50: < 100 nM

## Cn1cnc(Cn2c(=O)c3c(cc(-c4cc(C#N)ccc4Cl)n4ccnc34)n(Cc3cc(F)c(F)c(F)c3)c2=O)n1 [Compound I-0642]
[1]; [5]
  EC50: 640 nM
[2]; [4]
  IC50: 3 nM

## Cc1cnc2c3c(=O)n(Cc4ncn(C)n4)c(=O)n(Cc4cc(F)c(F)c(F)c4)c3cc(-c3cc(C#N)ccc3Cl)n12 [Compound I-0643]
[1]; [5]
  EC50: 520 nM
[2]; [4]
  IC50: 4.3 nM

## Cn1cnc(Cn2c(=O)c3c(cc(-c4cc(C#N)ccc4Cl)n4ncnc34)n(Cc3cc(F)c(F)c(F)c3)c2=O)n1 [Compound I-0645]
[1]; [3]
  EC50: 100 to 1000 nM
[2]; [4]
  IC50: 100 to 1000 nM

## COc1nc(N2[C@@H]3CC[C@H]2CNC3)cc2c1c(=O)n(-c1cnc3ccccn13)c(=O)n2Cc1cc(F)c(F)c(F)c1 [Compound I-0646]
[1]; [6]
  EC50: < 100 nM
[2]; [7]
  IC50: < 100 nM

## Cn1cnc(Cn2c(=O)c3c(cc(-c4cc(C#N)ccc4Cl)n4c(=O)[nH]nc34)n(Cc3cc(F)c(F)c(F)c3)c2=O)n1 [Compound I-0647]
[1]; [5]
  EC50: 13900 nM
[2]; [4]
  IC50: 5.7 nM

## COc1nc(N2[C@@H]3CCC[C@H]2CNC3)cc2c1c(=O)n(-c1cnc3ccccn13)c(=O)n2Cc1cc(F)c(F)c(Cl)c1 [Compound I-0648]
[1]; [6]
  EC50: < 100 nM
[2]; [7]
  IC50: < 100 nM

## COc1nc(N2[C@@H]3CC[C@H]2CNC3)cc2c1c(=O)n(-c1cnc3ccc(Cl)cn13)c(=O)n2Cc1cc(Cl)ccc1Cl [Compound I-0649]
[1]; [6]
  EC50: < 100 nM
[2]; [7]
  IC50: < 100 nM

## COc1cc(N2[C@@H]3CC[C@H]2CNC3)cc2c1c(=O)n(-c1cnc3cc(F)ccn13)c(=O)n2Cc1cc(Cl)c(F)cc1C [Compound I-0650]
[1]; Severe acute respiratory syndrome coronavirus 2, HEK-293T, 72 h
  EC50: 27.3 nM
[2]; [7]
  IC50: 1.2 nM

## COc1nc(NC(C)C)cc2c1c(=O)n(-c1cnc3cc(F)ccn13)c(=O)n2-c1ccc(F)c(Cl)c1 [Compound I-0651]
[1]; [5]
  EC50: 13 nM
[2]; [4]
  IC50: 8.5 nM

## COc1nc(N2CC[C@@H](C#N)C2)cc2c1c(=O)n(-c1cnc3cc(F)ccn13)c(=O)n2-c1ccc(F)c(Cl)c1 [Compound I-0652]
[1]; [5]
  EC50: 7.43 nM
[2]; [4]
  IC50: 1.4 nM

## COCCN(C)c1cc2c(c(OC)n1)c(=O)n(-c1cnc3cc(F)ccn13)c(=O)n2-c1ccc(F)c(Cl)c1 [Compound I-0653]
[1]; [5]
  EC50: 11.6 nM
[2]; [4]
  IC50: 14 nM

## COc1nc(N2CCC(F)(F)C2)cc2c1c(=O)n(-c1cnc3ccc(C#N)cn13)c(=O)n2-c1ccc(F)c(Cl)c1 [Compound I-0654]
[1]; [3]
  EC50: < 100 nM
[2]; [4]
  IC50: < 100 nM

## COc1nc(N2CCC(F)(F)C2)cc2c1c(=O)n(-c1cnc3cc(F)c(Cl)cn13)c(=O)n2-c1ccc(F)c(Cl)c1 [Compound I-0655]
[1]; [3]
  EC50: < 100 nM
[2]; [4]
  IC50: < 100 nM

## CCC(=O)c1ccc(Cl)c(-c2cc(OC)c3c(=O)n(Cc4ncn(C)n4)c(=O)n(Cc4cc(F)c(F)c(F)c4)c3c2)c1 [Compound I-0657]
[1]; [5]
  EC50: 76.1 nM
[2]; [4]
  IC50: 20 nM

## Cc1cncc(-n2c(=O)c3c(n(Cc4cc(F)c(F)c(F)c4)c2=O)CN(c2cc(C#N)ccc2Cl)CC3)c1 [Compound I-0658]
[1]; [3]
  EC50: 100 to 1000 nM
[2]; [4]
  IC50: 100 to 1000 nM

## COc1cc(-c2cc(C#N)ccc2Cl)cc2c1c(=O)n(-c1cnc3ccccn13)c(=O)n2Cc1cc(F)c(F)c(F)c1 [Compound I-0660]
[1]; [3]
  EC50: < 100 nM
[2]; [4]
  IC50: < 100 nM

## COc1cc(-c2cc(C#N)ccc2Cl)cc2c1c(=O)n(-c1cnc3ccccn13)c(=O)n2Cc1cc(F)c(F)c(F)c1 [Compound I-0661]
[1]; HEK293T/ACE2-TMPRSS2 cells, cultured 3 days, CellTiter-Glo 2.0 luminescence, read-out: EC50 (50% SARS-CoV-2 infected cell death inhibitory concentration)
  EC50: < 100 nM
[2]; [4]
  IC50: < 100 nM

## COc1cc(N2[C@@H]3CC[C@H]2CNC3)cc2c1c(=O)n(-c1cnc3ccccn13)c(=O)n2Cc1cc(F)c(F)c(F)c1 [Compound I-0666]
[1]; [6]
  EC50: 100 to 1000 nM
[2]; [7]
  IC50: < 100 nM
